The values that follow come from patent US20030217372A1, “Methods of using alpha 1b-adrenergic receptors” (priority 2002, published 2003).

Usually EC50 stands for the concentration at which the effect is half-maximal.

What all share (type): in vivo
The test system of experiment [1] is WT and α1b-AR KO mice. Briefly: Locomotor activity in circular corridor after acute drug injection. The settings on record: for locomotor activity: i.p., different doses. The procedure: FIG. 2 is a series of dose response graphs that depicts the results of locomotor response to novelty, saline, scopolamine and chloro-APB experiments in WT and α1b-AR KO mice. […] Animals were placed in the experimental apparatus for 90 minutes, received a saline injection and were replaced in the apparatus for 60 minutes. On the following day, animals were placed in the experimental apparatus for 90 minutes, they received an intraperitoneal injection of either saline or scopolamine (1 mg/kg) and their locomotor response was measured every 5 minutes for 60 minutes. FIG. 2D represents the results of locomotor response to chloro-APB; animals were placed in the experimental apparatus for 90 minutes, received a saline injection and were replaced in the apparatus for 60 minutes. On the following days, animals were placed in the experimental apparatus for 90 minutes, they received an intraperitoneal injection of chioro-APB and their locomotor response was measured every 5 minutes for 60 minutes. Several doses of chloro-APB were tested on consecutive days in a random order.
Independent groups of animals were used for each treatment to avoid eventual behavioral sensitization (N=6-16 per group).
(§1) Mice were introduced in a circular corridor (4.5 cm width, 17 cm external diameter) crossed by four infrared beams (1.5 cm above the base) placed at every 90° (Imetronic, Pessac, France). The locomotor activity was counted when animals interrupted two successive beams and, thus, had traveled ¼ of the circular corridor. In each session, the spontaneous activity was recorded for 90 minutes, before mice received either saline or drugs. Their activity was recorded for an additional 60 minutes or 120 minutes period. The first session was a session of habituation to the experimental procedure during which animals received saline (˜3 ml/kg, i.p.). The locomotor response to a drug administration was measured on the following day. Tests were performed between 12:00 and 6:00 p.m. in stable conditions of temperature and humidity.

Experiment [2] relates to WT and α1b-AR KO mice. Briefly: Locomotor sensitization induced by repeated drug administration. The protocol: Animals spent 90 minutes in the experimental apparatus, received a saline injection and were replaced in the apparatus for 60 minutes. […] Four similar sessions took place every other day. The sixth session took place after a 10-day withdrawal. Locomotor responses measured during the first hour following each injection are presented in function of the number of injections and slope values. N=6 to 15 animals per group.
N=6 to 12 animals per group. […] FIG. 6B represents the time course of the locomotor responses measured every 5 minutes.
as §1
Data were analyzed with Student's t-test or analysis of variance. For behavioral sensitization experiments, correlation between the number of drug injections and the amplitude of the locomotor responses was analyzed with linear regression and the influence of genotype on this correlation with an analysis of covariance. Genotype and prazosin treatments were between-subjects factors. […] Differences were considered significant when p<0.05.
The rate of sensitization was evaluated by determining the slope of the “number of injections/response” curve (FIG. 5).

Experiment [3] has as its system WT and α1bAR-KO mice. The experiment can be described thus: Microdialysis: extracellular DA levels in the nucleus accumbens after systemic D-amphetamine. The protocol: Mice were anaesthetised with sodium pentobarbital (60 mg/kg; Sanofi Santé Animale, France) and placed in a stereotaxic frame (Kopf instruments). The head was positioned by means of a mouse nose clamp adaptator (Kopf model 922) supplemented by rat ear bars placed lightly in the external auditory meatus. A unilateral permanent cannula (CMA/7 guide cannula, Microdialysis AB, Sweden) was implanted into the nucleus accumbens and was secured on the skull with screw and dental cement. The coordinates for the guide cannula tip were antero-posterior (AP): +1.3 relative to bregma, medio-lateral (ML): +0.8, and dorso-ventral (DV): −2,4 mm from dura (Paxinos and Franklin, The mouse brain in stereotaxic coordinates, Academic Press 2001).
The day of the experiment, the microdialysis probe was inserted (CMA/7, Membrane length 2 mm and diameter 0.24 mm, cut-off: 6000 Da, Microdialysis AB, Sweden, for mice or CMA/11 with identical probe characteristics for rats). Artificial CSF (in mM: NaCl: 147; KCl: 3.5; CaCl2: 1; MgCl2: 1.2; NaH2PO4: 1; NaHCO3: 25, pH=7.6) was perfused with a CMA100 microinjection pump through the probe at a rate of 1 μl/min (2 μl/min for rats) via FEP catheter (internal diameter 0.12 mm for mice) or polyethylene catheter (internal diameter 0.3 mm for rats) connected to a fluid swivel. Adequate steady state of DA levels in perfusate samples was reached 2 hours and 20 minutes after probe insertion for mice and rats, and samples were collected in 300 μl vials placed into a refrigerated computer-controlled fraction collector (CMA/170). Samples (20 μl every 20-minutes for mice and 10 μl every 5 minutes for rats) were collected during 100 minutes and 30 minutes for mice and rats, respectively, to determine basal extracellular DA values.
Dialysate samples were completed to 30 μl with the mobile phase and placed into a refrigerated automatic injector (Triathlon, Spark Holland, Emmen, The Netherlands). Twenty five μl of the sample were injected every 15 minutes through a rheodyne valve in the mobile phase circuit. High-performance liquid chromatography was performed with a reverse-phase column (80×4.6 mm, […] particle size, HR-80, ESA INC., Chelmsford, Mass.). Mobile phase (NaH2PO4 75 mM, EDTA 20 μM, octane sulfonic acid 2.75 mM, triethylamine 0.7 mM, acetonitrile 6%, methanol 6%, and pH 5.2) was delivered at 0.7 ml/min by an ESA-580 pump. Electrochemical detection was performed with an ESA coulometric detector (Coulochem II 5100A, with a 5014B analytical cell; Eurosep, Cergy, France). […]
(§2) Results presented are means±S.E.M of data obtained with 5 to 9 animals. […] Data from microdialysis experiments were expressed as a percentage of the respective mean basal value to compensate for inter-subject differences. […]

Experiment [4] concerns WT and α1bAR-KO mice. Briefly: Locomotor activity after systemic D-amphetamine during microdialysis experiments. The settings on record: 120 minutes after injection. The protocol:
as §1
Results presented are means±S.E.M of data obtained with 5 to 9 animals. Statistical analysis was performed using Graph Pad Prism 3.0 software, (San Diego, Calif.). Data from microdialysis experiments were expressed as a percentage of the respective mean basal value to compensate for inter-subject differences. […] LogEC50's were compared after fitting curves with a Student's t-test. Pharmacological treatments correspond to independent groups of animals. Significant differences were set at p<0.05.

Another experiment deals with C57BL6/J mice. Briefly: Local perfusion (reverse dialysis) of D-amphetamine in the nucleus accumbens, mice.
The next experiment concerns Sprague-Dawley rats. Briefly: Local perfusion (reverse dialysis) of D-amphetamine in the nucleus accumbens, rats. The settings on record: read-out: EC50 of DA release (extracellular DA levels). The protocol: Extracellular DA levels are expressed in percent of basal DA values (3.50±0.021 and 4.71±0.015 pg DA per 20 minutes for mice and rats, respectively).
Rats were anesthetised with sodium pentobarbital (60 mg/kg; Sanofi Santé Animale, France). A unilateral permanent cannula (CMA/11 guide cannula, Microdialysis AB, Sweden) was implanted into the nucleus accumbens. The coordinates for the guide cannula tip were antero-posterior (AP): +1.7 relative to bregma, medio-lateral (ML): +1.1, and dorso-ventral (DV): −5.7 mm from dura (Paxinos and Watson, Ann. Rev. Pharmacol. Toxicol. 32:63(−77, 1986). After surgery, animals were placed in individual plastic cages and allowed to recover for at least 4 days.
The day of the experiment, the microdialysis probe was inserted (CMA/7, Membrane length 2 mm and diameter 0.24 mm, cut-off: 6000 Da, Microdialysis AB, Sweden, for mice or CMA/11 with identical probe characteristics for rats). […]
as §2

The mark [5] stands for this setting: α1bAR-KO mice, D-amphetamine 3 mg/kg.

Protocol for C57BL6/J mice: Dialysate samples were completed to 30 μl with the mobile phase and placed into a refrigerated automatic injector (Triathlon, Spark Holland, Emmen, The Netherlands). Twenty five μl of the sample were injected every 15 minutes through a rheodyne valve in the mobile phase circuit. High-performance liquid chromatography was performed with a reverse-phase column (80×4.6 mm, 3 μM particle size, HR-80, ESA INC., Chelmsford, Mass.). Mobile phase (NaH2PO4 75 mM, EDTA 20 μM, octane sulfonic acid 2.75 mM, triethylamine 0.7 mM, acetonitrile 6%, methanol 6%, and pH 5.2) was delivered at 0.7 ml/min by an ESA-580 pump. […]

On to `C[C@H](N)Cc1ccccc1.C[C@H](N)Cc1ccccc1.O=S(=O)(O)O` [D-amphetamine, D-amphetamine sulfate], for which the “amplitude of locomotor response, α1b-AR KO vs WT mice” value with WT and α1b-AR KO mice [1] (D-amphetamine 2 and 3 mg/kg, cocaine and morphine independent of dose) is given as “significantly lower”. Moreover, the locomotor activity entry with WT and α1b-AR KO mice [1] (WT mice) is on record as “dose-dependent stimulation of locomotor activity”; in the experiment on WT and α1b-AR KO mice [1] (α1b-AR KO mice), “also increased locomotor activity”. Moreover, the “rate of sensitization: slope of the number of injections/response curve” value is reported as 179.8±69.1 with WT and α1b-AR KO mice [2] (WT mice, D-amphetamine 1 mg/kg); 265+71 in the experiment with WT and α1b-AR KO mice [2] (WT mice, D-amphetamine 2 mg/kg); 33.4±17.7 in the experiment on WT and α1b-AR KO mice [2] (α1b-AR KO mice, D-amphetamine 1 mg/kg); 104.4±31 in the experiment with WT and α1b-AR KO mice [2] (α1b-AR KO mice, D-amphetamine 2 mg/kg). For the same compound, the “extracellular DA levels in the nucleus accumbens” value in the experiment with WT and α1bAR-KO mice [3] (WT mice, D-amphetamine 3 mg/kg i.p.) was “enhanced extracellular DA levels”; with WT and α1bAR-KO mice [3] (WT mice, D-amphetamine 6 mg/kg i.p.), “enhanced extracellular DA levels”; with WT and α1bAR-KO mice [3] (setting [5]), “did not modify basal extracellular DA levels”. Also, the “mean increase in extracellular DA levels in the nucleus accumbens” value with WT and α1bAR-KO mice [3] (α1bAR-KO mice, D-amphetamine 6 mg/kg, vs basal) is “+25%”. For the same compound, the locomotor hyperactivity amounted to 1352±389 in the experiment with WT and α1bAR-KO mice [4] (WT mice, D-amphetamine 3 mg/kg); 2758±199 in the experiment on WT and α1bAR-KO mice [4] (WT mice, D-amphetamine 6 mg/kg); 219±62 with WT and α1bAR-KO mice [4] (setting [5]); 734±184 in the experiment with WT and α1bAR-KO mice [4] (α1bAR-KO mice, D-amphetamine 6 mg/kg). In addition, the “DA release in WT mice lower than previously found in rats” value in the experiment with C57BL6/J mice (3 μM D-amphetamine, local perfusion in nucleus accumbens, WT mice vs rats (Darracq et al.)) is recorded as “more than 5 fold”. Also, the half-maximal effective concentration (EC50) in the experiment on C57BL6/J mice (C57BL6/J mice, local perfusion in nucleus accumbens, read-out: EC50 of DA release (extracellular DA levels)) turned out to be 15.6 ± 1.1 µM; with Sprague-Dawley rats it was 11.8 ± 1.3 µM. Also, in the experiment on C57BL6/J mice (mice nucleus accumbens, up to 100 μM), the “locomotor hyperactivity on local perfusion” value is recorded as “did not induce any locomotor hyperactivity”.
